Experimental data published in patent US20230203098A1, “HUMAN TRANSFERRIN RECEPTOR BINDING PEPTIDE” (priority 2020, published 2023).
Where two headings read alike, the source gives them in different places. Blank lines part the entries; values can stand above or below the compound they belong to. Where a SMILES comes first, the peptide text is derived from it. Bridges are numbered along the chain shown (N, C = ends). [ ]: non-standard residue; d: D form. The star is where a group is joined. X2 = O=C(O)c1cc(C(=O)*)ccc1-c1c2ccc(=O)cc-2oc2cc(O)ccc12; PEG12 = NCCOCCOCCOCCOCCOCCOCCOCCOCCOCCOCCOCCOCCC(=O)O; NMePhe(3-Cl) = CN[C@@H](Cc1cccc(Cl)c1)C(=O)O; NMeW = CN[C@@H](Cc1c[nH]c2ccccc12)C(=O)O; NMeY = CN[C@@H](Cc1ccc(O)cc1)C(=O)O; NMeF = CN[C@@H](Cc1ccccc1)C(=O)O; Chg = N[C@H](C(=O)O)C1CCCCC1; PEG4 = NCCOCCOCCOCCOCCC(=O)O; X1 = CN[C@H](CCCCN*)C(=O)O; Dap = NC[C@H](N)C(=O)O

Biological target: transferrin receptor (hTfR) (Homo sapiens, UniProt P02786)
Sequence (P02786 whole entry): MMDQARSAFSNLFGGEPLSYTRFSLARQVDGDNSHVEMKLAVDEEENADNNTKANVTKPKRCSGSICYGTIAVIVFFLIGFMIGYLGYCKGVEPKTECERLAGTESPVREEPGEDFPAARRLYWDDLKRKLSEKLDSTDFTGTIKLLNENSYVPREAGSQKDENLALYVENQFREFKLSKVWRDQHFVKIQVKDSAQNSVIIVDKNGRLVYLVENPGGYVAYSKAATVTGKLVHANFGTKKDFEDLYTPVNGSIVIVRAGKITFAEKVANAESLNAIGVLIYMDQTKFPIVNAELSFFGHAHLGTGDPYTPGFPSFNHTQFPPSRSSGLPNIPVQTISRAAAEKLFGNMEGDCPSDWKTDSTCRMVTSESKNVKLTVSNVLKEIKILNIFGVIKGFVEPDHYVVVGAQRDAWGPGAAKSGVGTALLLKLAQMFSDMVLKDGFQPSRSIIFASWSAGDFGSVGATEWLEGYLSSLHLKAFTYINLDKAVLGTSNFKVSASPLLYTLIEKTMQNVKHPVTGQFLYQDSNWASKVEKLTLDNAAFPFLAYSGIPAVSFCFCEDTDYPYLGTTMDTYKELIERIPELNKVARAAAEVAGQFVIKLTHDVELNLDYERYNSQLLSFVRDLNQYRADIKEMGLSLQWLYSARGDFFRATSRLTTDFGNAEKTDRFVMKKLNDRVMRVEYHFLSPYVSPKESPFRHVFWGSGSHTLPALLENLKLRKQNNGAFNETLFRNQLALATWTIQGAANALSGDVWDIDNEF
Assay: Intermolecular interaction evaluation test between transferrin receptor (hTfR) and peptide by surface plasmon resonance (SPR)
Assay type: binding
In short: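 Receptor was Ni-captured and EDC/NHS-fixed on an NTA chip; running buffer HEPES pH 8.0 with NaCl, Tween 20, BSA and 1.0% DMSO.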

[1] = SPR, peptides, linker-added peptides and FITC conjugates, Patent ID 203-230, read-out: KD
[2] = surface plasmon resonance, hTfR, read-out: KD value for hTfR by SPR (class symbol)
[3] = surface plasmon resonance, peptide vs hTfR, read-out: KD value, hTfR binding by SPR (class symbol)
[4] = hTfR binding by SPR, hTfR No. 894 variant peptides, linker-added peptides and payload conjugates (Table 2), read-out: KD value obtained from the SPR measurement

SMILES: CC[C@H](C)[C@@H]1NC(=O)[C@H](Cc2ccc(OC)cc2)NC(=O)[C@H](Cc2ccc(O)cc2)NC(=O)[C@H](CC(N)=O)NC(=O)[C@H](Cc2c[nH]c3ccccc23)N(C)C(=O)[C@H](C(C)C)NC(=O)[C@H](Cc2cccc(Cl)c2)N(C)C(=O)[C@H](C(C)C)NC(=O)[C@H](C)N(C)C(=O)CSC[C@@H](C(N)=O)NC(=O)[C@H](Cc2ccc(O)cc2)N(C)C(=O)[C@H](Cc2ccccc2)NC(=O)[C@H](CCCNC(=N)N)NC(=O)[C@H](CCCCN)NC(=O)[C@H]([C@@H](C)CC)NC1=O [compound 213]
Kd [1]: 1 to 100 nM

SMILES: CC[C@H](C)[C@@H]1NC(=O)[C@H](Cc2ccc(OC)cc2)NC(=O)[C@H](Cc2ccc(O)cc2)NC(=O)[C@H](CC(N)=O)NC(=O)[C@H](Cc2c[nH]c3ccccc23)N(C)C(=O)[C@H](C(C)C)NC(=O)[C@H](Cc2cccc(Cl)c2)N(C)C(=O)[C@H](C(C)C)NC(=O)[C@H](C)NC(=O)CSC[C@@H](C(N)=O)NC(=O)[C@H](Cc2ccc(O)cc2)N(C)C(=O)[C@H](Cc2ccc(Cl)cc2)NC(=O)[C@@H](CCCNC(=N)N)NC(=O)[C@H](CCCNC(=N)N)NC(=O)[C@H]([C@@H](C)CC)NC1=O [compound 392]
Kd [2]: 1 to 100 nM

SMILES: CC[C@H](C)[C@@H]1NC(=O)[C@H](Cc2ccc(OC)cc2)NC(=O)[C@H](Cc2ccc(O)cc2)NC(=O)[C@H](CC(N)=O)NC(=O)[C@H](Cc2cn(CC(=O)O)c3ccccc23)NC(=O)[C@H](C(C)C)NC(=O)[C@H](Cc2cccc(Cl)c2)N(C)C(=O)[C@H](C(C)C)NC(=O)[C@H](C)NC(=O)CSC[C@@H](C(N)=O)NC(=O)[C@H](Cc2ccc(O)cc2)N(C)C(=O)[C@H](Cc2ccccc2)NC(=O)[C@@H](CCCNC(=N)N)NC(=O)[C@H](CCCNC(=N)N)NC(=O)[C@H]([C@@H](C)CC)NC1=O [compound 306]
Kd [3]: 1 to 100 nM

SMILES: CC[C@H](C)[C@@H]1NC(=O)[C@H](Cc2ccc(O)cc2)NC(=O)[C@H](Cc2ccc(O)cc2)NC(=O)[C@H](CC(N)=O)NC(=O)[C@H](Cc2c[nH]c3ccccc23)N(C)C(=O)[C@H](C(C)C)NC(=O)[C@H](Cc2ccccc2)N(C)C(=O)[C@H](C(C)C)NC(=O)[C@H](C)NC(=O)CSC[C@@H](C(=O)NCCOCCOCCOCCOCCOCCOCCOCCOCCC(=O)N[C@@H](CCCCNC(=O)C2CCC(CN3C(=O)C=CC3=O)CC2)C(N)=O)NC(=O)[C@H](Cc2ccc(O)cc2)N(C)C(=O)[C@H](Cc2ccc(O)cc2)NC(=O)[C@H](CCCNC(=N)N)NC(=O)[C@H](CCCNC(=N)N)NC(=O)[C@H]([C@@H](C)CC)NC1=O (some centres unmarked) [compound 185]
Kd [4]: 1 to 100 nM

SMILES: CC[C@H](C)[C@@H]1NC(=O)[C@H](Cc2ccc(OC)cc2)NC(=O)[C@H](Cc2ccc(O)cc2)NC(=O)[C@H](CC(N)=O)NC(=O)[C@H](Cc2c[nH]c3ccccc23)N(C)C(=O)[C@H](C(C)C)NC(=O)[C@H](Cc2cccc(Cl)c2)N(C)C(=O)[C@H](C(C)C)NC(=O)[C@H](C)NC(=O)CSC[C@@H](C(N)=O)NC(=O)[C@H](Cc2ccc(O)cc2)N(C)C(=O)[C@H](Cc2ccccc2)NC(=O)[C@H](CCC(=O)N[C@H](CCC(=O)O)C(=O)O)NC(=O)[C@H](CCCNC(=N)N)NC(=O)[C@H]([C@@H](C)CC)NC1=O [compound 385]
Kd [2]: 1 to 100 nM

SMILES: CC[C@H](C)[C@@H]1NC(=O)[C@@H]2CCCCNC(=O)[C@H]3CCCN3C(=O)C[C@H](NC(=O)[C@H](C(C)C)NC(=O)[C@H](C)NC(=O)CSC[C@@H](C(N)=O)NC(=O)[C@H](Cc3ccc(O)cc3)N(C)C(=O)[C@H](Cc3ccc(O)cc3)NC(=O)[C@H](CCCNC(=N)N)NC(=O)[C@H](CCCNC(=N)N)NC(=O)[C@H]([C@@H](C)CC)NC1=O)C(=O)N[C@@H](C(C)C)C(=O)N(C)[C@@H](Cc1c[nH]c3ccccc13)C(=O)N[C@@H](CC(N)=O)C(=O)N[C@@H](Cc1ccc(O)cc1)C(=O)N2 [compound 414] ({CH2CO}-AVDV[NMeW]NYKIIRRY[NMeY]C-NH2; linker 3-8 via dP; thioether N-15)
Kd (surface plasmon resonance, peptide vs hTfR, read-out: KD value for hTfR by SPR (class symbol)): 1 to 100 nM

SMILES: CC[C@H](C)[C@@H]1NC(=O)[C@H](Cc2ccc(OC)cc2)NC(=O)[C@H](Cc2ccc(O)cc2)NC(=O)[C@H](CC(N)=O)NC(=O)[C@H](Cc2c[nH]c3ccccc23)N(C)C(=O)[C@H](C(C)C)NC(=O)[C@H](Cc2cccc(Cl)c2)N(C)C(=O)[C@H](C(C)C)NC(=O)[C@H](C)NC(=O)CSC[C@@H](C(N)=O)NC(=O)[C@H](Cc2ccc(O)cc2)N(C)C(=O)[C@H](Cc2ccccc2)NC(=O)[C@@H](CCCNC(=N)N)NC(=O)[C@H](CCCNC(=N)N)NC(=O)[C@H](CCC(=O)NCCCC[C@@H](NC)C(=O)O)NC1=O [compound 346] ({CH2CO}-AV[NMePhe(3-Cl)]V[NMeW]NYY(Me)IE(X1)R[dR]F[NMeY]C-NH2; thioether N-15)
Kd [3]: 1 to 100 nM

SMILES: CC[C@H](C)[C@@H]1NC(=O)[C@H](Cc2ccc(O)cc2)NC(=O)[C@H](Cc2ccc(O)cc2)NC(=O)[C@H](CC(N)=O)NC(=O)[C@H](Cc2c[nH]c3ccccc23)N(C)C(=O)[C@H](C(C)C)NC(=O)[C@H](Cc2ccccc2)NC(=O)[C@H](C(C)C)NC(=O)[C@H](C)NC(=O)CSC[C@@H](C(=O)NCC(=O)N[C@@H](CO)C(=O)N[C@@H](CO)C(=O)NCC(=O)N[C@@H](CO)C(=O)N[C@@H](CO)C(=O)N[C@@H](CCCCNC(=O)C2CCC(CN3C(=O)C=CC3=O)CC2)C(N)=O)NC(=O)[C@H](Cc2ccc(O)cc2)N(C)C(=O)[C@H](Cc2ccc(O)cc2)NC(=O)[C@H](CCCNC(=N)N)NC(=O)[C@H](CCCNC(=N)N)NC(=O)[C@H]([C@@H](C)CC)NC1=O (some centres unmarked) [compound 197]
Kd [4]: 1 to 100 nM

More lines, now with the values ahead:

Kd (binding to hTfR by SPR, Table 2 peptides, read-out: KD value (SPR) class): 100 to 1000 nM
SMILES: CC[C@H](C)[C@@H]1NC(=O)[C@H](C2CCCCC2)NC(=O)[C@H](Cc2ccc(O)cc2)NC(=O)[C@H](Cc2ccc(O)cc2)NC(=O)[C@H](CC(N)=O)NC(=O)[C@H](Cc2c[nH]c3ccccc23)NC(=O)[C@H](C2CCCCC2)NC(=O)[C@H](Cc2ccccc2)N(C)C(=O)[C@H](C(C)C)NC(=O)[C@H](C)NC(=O)CSC[C@@H](C(=O)NCCOCCOCCOCCOCCOCCOCCOCCOCCOCCOCCOCCOCCC(N)=O)NC(=O)[C@H](Cc2ccc(O)cc2)N(C)C(=O)[C@H](Cc2ccc(O)cc2)NC(=O)[C@H](CCCNC(=N)N)NC(=O)[C@H](CCCNC(=N)N)NC1=O [compound 266] ({CH2CO}-AV[NMeF][Chg]WNYY[Chg]IRRY[NMeY]C[PEG12]-NH2; thioether N-15)

Kd (SPR, hTfR, class symbols A-D, read-out: KD (column without head, continuation of the table series)): < 1 nM
SMILES: CC[C@H](C)[C@@H]1NC(=O)[C@H](Cc2ccc(OC)cc2)NC(=O)[C@H](Cc2ccc(O)cc2)NC(=O)[C@H](CC(N)=O)NC(=O)[C@H](Cc2c[nH]c3ccccc23)NC(=O)[C@H](C(C)C)NC(=O)[C@H](Cc2cccc(Cl)c2)N(C)C(=O)[C@H](C(C)C)NC(=O)[C@H](C)NC(=O)CSC[C@@H](C(=O)NCCOCCOCCOCCOCCC(N)=O)NC(=O)[C@H](Cc2ccc(O)cc2)N(C)C(=O)[C@H](Cc2ccccc2)NC(=O)[C@H](CCCNC(=N)N)NC(=O)[C@H](CCCNC(=N)N)NC(=O)[C@H]([C@@H](C)CC)NC1=O [compound 502]

Kd (SPR, hTfR No. 894 variants with PEG12c linker (Table 2), read-out: KD): 1 to 100 nM
SMILES: CC[C@H](C)[C@@H]1NC(=O)[C@H]([C@@H](C)CC)NC(=O)[C@H](Cc2ccc(O)cc2)N(C)C(=O)[C@H](Cc2ccc(O)cc2)NC(=O)[C@H](CC(N)=O)NC(=O)[C@H](Cc2c[nH]c3ccccc23)NC(=O)[C@H](C(C)C)NC(=O)[C@H](Cc2ccccc2)N(C)C(=O)[C@H](C(C)C)NC(=O)[C@H](C)NC(=O)CSC[C@@H](C(=O)NCCOCCOCCOCCOCCOCCOCCOCCOCCOCCOCCOCCOCCC(N)=O)NC(=O)[C@H](Cc2ccc(O)cc2)N(C)C(=O)[C@H](Cc2ccc(O)cc2)NC(=O)[C@H](CCCNC(=N)N)NC(=O)[C@H](CCCNC(=N)N)NC1=O [compound 120]

Kd (SPR, linker and payload (FITC, VivoTag) conjugates, read-out: KD): 1 to 100 nM
SMILES: CC[C@H](C)[C@@H]1NC(=O)[C@H](Cc2ccc(O)cc2)NC(=O)[C@H](Cc2ccc(O)cc2)NC(=O)[C@H](CC(N)=O)NC(=O)[C@H](Cc2c[nH]c3ccccc23)NC(=O)[C@H](C(C)C)NC(=O)[C@H](Cc2ccccc2)N(C)C(=O)[C@H](C(C)C)NC(=O)[C@H](C)NC(=O)CSC[C@@H](C(=O)NCCOCCOCCOCCOCCC(=O)N[C@@H](CNC(=O)c2ccc(-c3c4ccc(=O)cc-4oc4cc(O)ccc34)c(C(=O)O)c2)C(N)=O)NC(=O)[C@H](Cc2ccc(O)cc2)N(C)C(=O)[C@H](Cc2ccc(O)cc2)NC(=O)[C@H](CCCNC(=N)N)NC(=O)[C@H](CCCNC(=N)N)NC(=O)[C@H]([C@@H](C)CC)NC1=O [compound 162]

Kd [3]: 1 to 100 nM
SMILES: CC[C@H](C)[C@@H]1NC(=O)[C@H](Cc2ccc(OC)cc2)NC(=O)[C@H](Cc2ccc(O)cc2)NC(=O)[C@H](CC(N)=O)NC(=O)[C@H](Cc2c[nH]c3ccccc23)N(C)C(=O)[C@H](C(C)C)NC(=O)[C@H](Cc2cccc(Cl)c2)N(C)C(=O)[C@H](C(C)C)NC(=O)[C@H](C)NC(=O)CSC[C@@H](C(=O)NCCOCCOCCOCCOCCC(N)=O)NC(=O)[C@H](Cc2ccc(O)cc2)N(C)C(=O)[C@H](Cc2ccccc2)NC(=O)[C@@H](CCCNC(=N)N)NC(=O)[C@H](CCCNC(=N)N)NC(=O)[C@H](CN)NC1=O [compound 336] ({CH2CO}-AV[NMePhe(3-Cl)]V[NMeW]NYY(Me)I[Dap]R[dR]F[NMeY]C[PEG4]-NH2; thioether N-15)

Kd [1]: 100 to 1000 nM
SMILES: CC[C@H](C)[C@@H]1NC(=O)[C@H](Cc2ccc(O)cc2)NC(=O)[C@H](Cc2ccc(O)cc2)NC(=O)[C@H](CC(N)=O)NC(=O)[C@H](Cc2c[nH]c3ccccc23)NC(=O)[C@H](C(C)C)NC(=O)[C@H](Cc2ccccc2)NC(=O)[C@H](C(C)C)NC(=O)[C@H](C)NC(=O)CSC[C@@H](C(=O)NCCOCCOCCOCCOCCOCCOCCOCCOCCOCCOCCOCCOCCC(=O)N[C@@H](CCCCNC(=O)c2ccc(-c3c4ccc(=O)cc-4oc4cc(O)ccc34)c(C(=O)O)c2)C(N)=O)NC(=O)[C@H](Cc2c[nH]cn2)NC(=O)[C@H](C(C)C)NC1=O [compound 204] ({CH2CO}-AVFVWNYYIVHC[PEG12]K(X2)-NH2; thioether N-12)
